Data: publication PMC7011974, “Benzimidazole derivatives endowed with potent antileishmanial activity” (Journal of Enzyme Inhibition and Medicinal Chemistry, 2017)
Values joined by “and” are separate entries in the source; they are usually repeats but may differ in a detail not shown here. Equal entries are not always repeated. Where two headings read alike, the source gives them in different places. One block for each compound: values may come before it.

Assays:
[1] = system: serum cholesterol concentration; set-up: method as in ref 21 = [21]; 21 (a) Sparatore F , Boido V , Fanelli F. Dialkylaminoalkylbenzimi-dazoles of pharmacological interest . Farmaco Sci 1968; 23 : 344 – 59 . (b) Paglietti G , Sparatore F. Dialkylaminoalkyl-benzimidazo; conditions: hypercholesterolemic mice, 50 mg/kg p.os; cited from earlier work
[2] = system: human microvascular endothelial cell line (HMEC-1); assay: Cytotoxicity on HMEC-1 cells (MTT); type: cell-based; conditions: for IC50: Homo sapiens, cytotoxicity, HMEC-1 cells, MTT
L. tropica promastigotes = assay: Antileishmanial activity on L. tropica promastigotes (MTT); type: cell-based, Leishmania tropica; conditions: for IC50: Leishmania tropica; for IC50 amph. B ×100/IC50 compd., L. tropica: percent of amphotericin B potency, calculated for each experiment
L. major (promastigotes) = system: L. major (promastigotes); set-up: method as in PMID 20430484, PMID 15183913, PMID 18486471; conditions: Figure 3; cited from earlier work
[3] = system: L. infantum promastigotes; assay: Antileishmanial activity on L. infantum promastigotes (MTT); type: cell-based, Leishmania infantum; conditions: for IC50: Leishmania infantum; for IC50 amph. B ×100/IC50 compd., L. infantum: percent of amphotericin B potency, calculated for each experiment
[4] = system: intramacrophagic amastigote stage of L. infantum; assay: In vitro intracellular amastigote susceptibility assay in THP-1 macrophages; type: cell-based, Leishmania infantum
Experimental: (b) In vitro intracellular amastigote susceptibility assays. […] Cell monolayers were then washed and incubated with compounds for 72 h. Slides were fixed with methanol and stained with Giemsa. The percentage of infected macrophages in treated and non-treated cells was determined by light microscopy.

[5] = system: respiratory syncytial virus (RSV); set-up: method as in ref 24c = [24]; 24 (a) Tonelli M , Paglietti G , Boido V , et al Antiviral activity of benzimidazole derivatives. I. Antiviral activity of 1-substituted-2-[(benzotriazol-1/2-yl)methyl]benzimidazoles . Chem Biodivers; conditions: ref 24c; cited from earlier work
[6] = system: renal cancer cell line UO31; set-up: method as in ref 25b = [25]; 25 (a) Novelli F , Tasso B , Sparatore F. Synthesis and biological investigations of 2-(tetrahydropyran-2'-yl) and 2-(tetrahydrofuran-2'-yl)benzimidazoles . Farmaco 1997; 52 : 499 – 507 . (b) Tonelli; conditions: ref 25b; cited from earlier work
[7] = system: Coxsackie virus B5 (CVB-5); set-up: method as in ref 24c = [24]; 24 (a) Tonelli M , Paglietti G , Boido V , et al Antiviral activity of benzimidazole derivatives. I. Antiviral activity of 1-substituted-2-[(benzotriazol-1/2-yl)methyl]benzimidazoles . Chem Biodivers; conditions: ref 24c; cited from earlier work
in vitro = conditions: monkey
[8] = system: 24 human cancer cell lines; set-up: method as in ref 25b = [25]; 25 (a) Novelli F , Tasso B , Sparatore F. Synthesis and biological investigations of 2-(tetrahydropyran-2'-yl) and 2-(tetrahydrofuran-2'-yl)benzimidazoles . Farmaco 1997; 52 : 499 – 507 . (b) Tonelli; conditions: ref 25b; read-out: GI50 against 24 human cancer cell lines; cited from earlier work
[9] = system: L. mexicana (amastigotes); set-up: method as in PMID 20430484, PMID 15183913, PMID 18486471; conditions: Figure 3; cited from earlier work
[10] = system: L. mexicana (promastigotes); set-up: method as in PMID 20430484, PMID 15183913, PMID 18486471; conditions: Figure 3; cited from earlier work
[11] = system: L. donovani (promastigotes); set-up: method as in PMID 20430484, PMID 15183913, PMID 18486471; conditions: Figure 3; cited from earlier work
[12] = 72 h, promastigotes, MTT, 72 h, starred values mean of two experiments, read-out: IC50 (µM) L. tropica
[13] = promastigotes, MTT, 72 h, read-out: IC50 (µM) L. infantum

Compound: CCN(CC)CCCn1c(Cc2ccc(Cl)cc2)nc2cc(C(F)(F)F)ccc21 [2-(4-chlorobenzyl)-1-(3-diethylaminopropyl)-5-trifluoromethylbenzimidazole]
Reduction of serum cholesterol concentration [1]: > 15%

IC50 (L. tropica promastigotes; [12]): 0.113 ± 0.03 µM
IC50 (L. tropica promastigotes; range of values across experiments, read-out: IC50 range over many different experiments, L. tropica): 0.082 to 0.177 µM
IC50 amph. B ×100/IC50 compd., L. tropica (L. tropica promastigotes): 100
IC50 [3, 13]: 0.135 ± 0.03 µM
IC50 ([3]; range of values across experiments, read-out: IC50 range over many different experiments, L. infantum): 0.094 to 0.209 µM
IC50 amph. B ×100/IC50 compd., L. infantum [3]: 100
Compound: C[C@@H]1[C@H](O)[C@@H](C)/C=C/C=C/C=C/C=C/C=C/C=C/C=C/[C@H](O[C@@H]2O[C@H](C)[C@@H](O)[C@H](N)[C@@H]2O)C[C@@H]2O[C@](O)(C[C@@H](O)C[C@@H](O)[C@H](O)CC[C@@H](O)C[C@@H](O)CC(=O)O[C@H]1C)C[C@H](O)[C@H]2C(=O)O [Amph. B, amphotericin B, reference compound]
IC50 [2]: 25.7 ± 1.9 µM
SI L. infantum (IC50 HMEC-1/IC50 L. infantum) ([2]; selectivity index, HMEC-1): 190.4
SI L. tropica (IC50 HMEC-1/IC50 L. tropica) ([2]; selectivity index, HMEC-1): 227.4
IC50 (L. major (promastigotes)): 0.61 µM

Compound: FC(F)(F)c1ccc2c(c1)nc(Cc1ccc(Cl)cc1)n2C[C@@H]1CCCN2CCCC[C@H]12 [Compound 28, 2-(4-chlorobenzyl)-1-lupinyl-5-trifluoromethylbenzimidazole]
IC50 [2]: 16.9 µM
Reduction of the amastigote infection of THP-1 cells ([4]; 2 μM concentration): 33.2%
IC50 ([4]; Leishmania infantum, THP-1 macrophages, 72 h, read-out: IC50 against intramacrophagic amastigote stage of L. infantum): > 2 µM
EC50 [5]: 15 µM
GI50 [6]: 0.019 µM
EC50 [7]: 13 µM
IC50 (L. tropica promastigotes; [12]): 3.7 ± 1.19 µM
IC50 amph. B ×100/IC50 compd., L. tropica (L. tropica promastigotes): 4.8
IC50 (in vitro): > 100 µM
IC50 [3, 13]: 4.76 ± 1.6 µM
IC50 amph. B ×100/IC50 compd., L. infantum [3]: 4.4
GI50 [8]: < 5 µM

Compound: N=C(N)c1ccc(OCCCCCOc2ccc(C(=N)N)cc2)cc1 [pentamidine]
IC50 [9]: 9.57 µM
IC50 [10]: 2.42 µM
IC50 [11]: 2.2 µM and 2.87 µM
